Measurements published in PMC12136037, “Type II kinase inhibitors that target Parkinson’s disease–associated LRRK2” (Science Advances, 2025).
pIC50: −log10 of the molar value. Values joined by “and” are separate entries in the source; they are usually repeats but may differ in a detail not shown here. Identical values can stand only once. One block for each compound: values may come before it.

Target: T1, LRRK2^RCKW (Homo sapiens, UniProt Q5S007)
T1 construct: LRRK2 R1327 to E2527; His6-Z-tag (TEV cleavable) (N, cleaved yes); host or cells: Sf9 insect cells (baculovirus)
T1 sequence (Q5S007 1327-2527): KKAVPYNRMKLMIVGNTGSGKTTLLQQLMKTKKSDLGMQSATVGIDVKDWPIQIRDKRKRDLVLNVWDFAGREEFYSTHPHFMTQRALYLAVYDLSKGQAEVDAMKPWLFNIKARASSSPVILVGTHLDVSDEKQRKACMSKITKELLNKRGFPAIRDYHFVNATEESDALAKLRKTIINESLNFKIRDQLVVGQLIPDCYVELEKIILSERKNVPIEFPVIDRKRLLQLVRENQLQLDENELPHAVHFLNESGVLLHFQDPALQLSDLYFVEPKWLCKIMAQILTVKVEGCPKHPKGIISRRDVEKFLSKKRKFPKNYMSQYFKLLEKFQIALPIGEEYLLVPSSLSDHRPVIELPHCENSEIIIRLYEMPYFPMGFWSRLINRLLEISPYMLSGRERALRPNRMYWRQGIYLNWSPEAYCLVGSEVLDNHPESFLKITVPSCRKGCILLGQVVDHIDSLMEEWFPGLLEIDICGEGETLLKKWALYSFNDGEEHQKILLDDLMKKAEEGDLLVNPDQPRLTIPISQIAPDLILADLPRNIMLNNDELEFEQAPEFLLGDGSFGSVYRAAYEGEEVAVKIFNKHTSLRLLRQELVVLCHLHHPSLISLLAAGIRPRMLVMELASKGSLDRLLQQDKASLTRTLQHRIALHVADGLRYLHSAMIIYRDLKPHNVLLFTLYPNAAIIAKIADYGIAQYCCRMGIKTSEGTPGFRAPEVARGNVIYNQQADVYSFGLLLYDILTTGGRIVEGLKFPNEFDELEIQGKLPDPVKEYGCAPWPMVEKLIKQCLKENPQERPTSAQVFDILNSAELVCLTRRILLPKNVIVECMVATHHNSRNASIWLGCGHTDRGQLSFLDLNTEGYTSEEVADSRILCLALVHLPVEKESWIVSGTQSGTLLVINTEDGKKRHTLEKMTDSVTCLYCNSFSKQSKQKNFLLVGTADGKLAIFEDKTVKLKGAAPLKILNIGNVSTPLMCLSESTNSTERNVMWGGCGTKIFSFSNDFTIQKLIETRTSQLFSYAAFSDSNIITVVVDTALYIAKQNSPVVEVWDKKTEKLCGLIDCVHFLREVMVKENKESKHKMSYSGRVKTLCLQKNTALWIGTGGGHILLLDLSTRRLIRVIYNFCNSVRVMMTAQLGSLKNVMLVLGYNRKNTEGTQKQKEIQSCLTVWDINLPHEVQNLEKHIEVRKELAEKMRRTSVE
Assay: MS-based activity assay, Rab8a phosphorylation (pT72)
Assay type: biochemical
Conditions: for % phosphorylation: Rab8a; for % phosphorylation / Normalized: single runs; for LRRK2RCKW activity (% control): mean of n=3; for pIC50: mass spectrometry, 1 mM ATP, 4 h, read-out: IC50, LRRK2^RCKW-mediated phosphorylation of Rab8a; for Normalized: normalized % phosphorylation of Rab8a
Experimental: To determine IC50 values for selected inhibitors, activity assay was performed using LRRK2^RCKW and Rab8A substrate (table S4). LRRK2^RCKW (20 nM) was incubated with 5 μM substrate and a concentration series of the respective inhibitor in 20 mM Hepes (pH 7.4), 100 mM NaCl, 0.5 mM TCEP, 0.5% glycerol, 20 μM GDP, and 2.5 mM MgCl2. The reaction was started by adding 1 mM ATP and incubated at room temperature for 4 hours. The phosphorylation reaction was stopped by addition of MS buffer (0.1% formic acid in water). Reaction mix (5 μl) was injected into an Agilent 6230 electrospray ionization time-of-flight mass spectrometer coupled to a 1260 Infinity liquid chromatography unit (flow rate at 0.4 ml/min using a solvent gradient of water to acetonitrile with 0.1% formic acid). Data were acquired using the MassHunter LC/MS Data Acquisition software and analyzed using the BioConfirm vB.08.00 tool (both Agilent Technology, www.agilent.com/en/product/software-informatics/mass-spectrometry-software, RRID: SCR_016657).
Peak intensities of unphosphorylated and phosphorylated Rab8A were quantified, and the relative kinase activity was calculated as a ratio. To determine the IC50, a nonlinear regression with variable slope was fitted to the datapoints with GraphPad Prism (www.graphpad.com/, RRID:SCR_002798). (For step-by-step protocol, see dx.doi.org/10.17504/protocols.io.6qpvr385ovmk/v2.)

[1] = inhibitor 0.21 (0.212), listed as RN277
[2] = inhibitor 0.64 (0.635), listed as RN277
[3] = inhibitor 1.91 (2), listed as RN277
[4] = inhibitor 5.72 (6), listed as RN277
[5] = inhibitor 17.15 (17), listed as RN277
[6] = inhibitor 51.44 (51), listed as RN277
[7] = inhibitor 154.32 (154), listed as RN277
[8] = inhibitor 462.96 (463), listed as RN277
[9] = inhibitor 1388.89 (1389), listed as RN277
[10] = inhibitor 4166.67 (4167), listed as RN277
[11] = inhibitor 12500, listed as RN277
[12] = inhibitor 0.21 (0.212), listed as RN341
[13] = inhibitor 0.64 (0.635), listed as RN341
[14] = inhibitor 1.91 (2), listed as RN341
[15] = inhibitor 5.72 (6), listed as RN341
[16] = inhibitor 17.15 (17), listed as RN341
[17] = inhibitor 51.44 (51), listed as RN341
[18] = inhibitor 154.32 (154), listed as RN341
[19] = inhibitor 462.96 (463), listed as RN341
[20] = inhibitor 1388.89 (1389), listed as RN341
[21] = inhibitor 4166.67 (4167), listed as RN341
[22] = inhibitor 12500, listed as RN341

% phosphorylation [1]: 60.4% and 59.2% and 60.0%
% phosphorylation [2]: 61.6% and 60.3% and 62.2%
% phosphorylation [3]: 60.4% and 59.2%
% phosphorylation [4]: 61.0% and 59.5% and 59.1%
% phosphorylation [5]: 52.8% and 50.7% and 48.4%
% phosphorylation [6]: 34.0% and 33.1% and 33.2%
% phosphorylation [7]: 18.1% and 19.7% and 20.2%
% phosphorylation [8]: 8.2% and 8.7% and 10.4%
% phosphorylation [9]: 5.3% and 5.2% and 5.4%
% phosphorylation [10]: 4.0% and 5.6%
% phosphorylation [11]: 4.6% and 3.7% and 4.4%
LRRK2RCKW activity (% control) (inhibitor 0.64 nM): 102.03 % control
LRRK2RCKW activity (% control) (inhibitor 5.72 nM): 99.57 % control
LRRK2RCKW activity (% control) (inhibitor 17.15 nM): 84.23 % control
LRRK2RCKW activity (% control) (inhibitor 51.44 nM): 55.63 % control
LRRK2RCKW activity (% control) (inhibitor 154.32 nM): 32.20 % control
LRRK2RCKW activity (% control) (inhibitor 462.96 nM): 15.20 % control
LRRK2RCKW activity (% control) (inhibitor 1388.89 nM): 8.77 % control
pIC50: 7.15
Normalized [1]: 100.1 and 100.0 and 98.5
Normalized [2]: 102.0 and 101.9 and 102.2
Normalized [3]: 99.9 and 100.1 and 99.3
Normalized [4]: 100.9 and 100.6 and 97.0
Normalized [5]: 87.4 and 85.7 and 79.5
Normalized [6]: 56.4 and 55.8 and 54.6
Normalized [7]: 29.8 and 32.7 and 34.1
Normalized [8]: 13.5 and 14.4 and 17.6
Normalized [9]: 8.6 and 9.0
Normalized [10]: 6.6 and 9.5
Normalized [11]: 7.5 and 6.1
Compound: Cc1ccc(-n2nc(C(C)(C)C)cc2NC(=O)Nc2cccc(-c3c[nH]c4nc(Cl)nc(N5CCOCC5)c34)c2)cc1 [Compound 30]

Compound: CCSc1nc(NC)c2c(-c3cccc(NC(=O)Nc4cc(C(C)(C)C)nn4-c4ccc(C)cc4)c3)c[nH]c2n1 [Compound 32]
% phosphorylation [12]: 66.5% and 61.3% and 65.1%
% phosphorylation [13]: 67.4% and 62.2% and 63.1%
% phosphorylation [14]: 64.1% and 60.1% and 61.1%
% phosphorylation [15]: 63.8% and 59.4% and 61.3%
% phosphorylation [16]: 55.5% and 52.5% and 53.7%
% phosphorylation [17]: 47.7% and 41.6% and 46.5%
% phosphorylation [18]: 25.7% and 23.0% and 24.6%
% phosphorylation [19]: 11.0% and 11.8% and 10.3%
% phosphorylation [20]: 8.0% and 8.8% and 7.9%
% phosphorylation [21]: 5.7% and 6.7% and 6.1%
% phosphorylation [22]: 5.9% and 7.2% and 6.3%
LRRK2RCKW activity (% control) (inhibitor 0.64 nM): 100.63 % control
LRRK2RCKW activity (% control) (inhibitor 5.72 nM): 96.37 % control
LRRK2RCKW activity (% control) (inhibitor 17.15 nM): 84.53 % control
LRRK2RCKW activity (% control) (inhibitor 51.44 nM): 70.93 % control
LRRK2RCKW activity (% control) (inhibitor 154.32 nM): 38.27 % control
LRRK2RCKW activity (% control) (inhibitor 462.96 nM): 17.40 % control
LRRK2RCKW activity (% control) (inhibitor 1388.89 nM): 12.93 % control
pIC50: 6.96
Normalized [12]: 99.7 and 99.1 and 103.7
Normalized [13]: 101.0 and 100.4 and 100.5
Normalized [14]: 96.1 and 97.0 and 97.3
Normalized [15]: 95.6 and 96.0 and 97.5
Normalized [16]: 83.2 and 84.9 and 85.6
Normalized [17]: 71.6 and 67.2 and 74.0
Normalized [18]: 38.5 and 37.1 and 39.2
Normalized [19]: 16.6 and 19.1 and 16.5
Normalized [20]: 12.0 and 14.2 and 12.6
Normalized [21]: 8.5 and 10.8 and 9.6
Normalized [22]: 8.9 and 11.6 and 10.1
